What was measured:
[1] = system: osteoclasts from bone marrow-derived macrophages; test: Osteoclast formation from bone marrow-derived macrophages (M-CSF and RANKL), TRAP staining and count of multinucleated cells; format: cell-based, DBA/1J mice; settings: for effect for inhibiting osteoclast growth: comparison among the nine compounds of table 1, cell system not stated; for inhibiting osteoclasts grown (observation of plates, FIG. 2A) / numbers of osteoclasts as a function of concentration (FIG. 3): bone marrow-derived macrophages; for inhibiting osteoclasts grown (observation of plates, FIG. 2A): 10 nM, 15 nM and 20 nM, effect positive proportional to the concentration; for numbers of osteoclasts as a function of concentration (FIG. 3): compared to the contrast containing M-CSF and RANKL only
Experimental: Bone marrow cells (BMCs) from DBA/1J mice were obtained for osteoclast progenitor cell preparation. The BMCs were isolated from the tibias and femurs of 8-wk-old male mice by flushing the bone marrow cavity with PBS. The cells were then centrifuged at 1000 g for 10 min and exposed to 5 ml of hypotonic ACK buffer ([…], and 0.1 mM EDTA, (pH 7.4)) at room temperature for […] to remove the red blood cells. They were incubated with α-MEM (Gibco BRL) containing penicillin (100 U/ml), streptomycin (100 μg/ml) and 10% heat-inactivated FBS for 12 hr to separate the floating and adherent cells. The floating cells were collected, suspended in α-MEM, counted, seeded onto a 96-well plate at 4×10^4 cells/well, and cultured in α-MEM in the presence of 30 ng/ml M-CSF for 3 days to form macrophage-like osteoclast precursor cells. […] On day 3, the medium was replaced with fresh medium containing M-CSF, RANKL and P. amboinicus.
(§1) TRAP staining was performed as described Han et al. 2007. Briefly, cells were washed with PBS and fixed with 3.7% formaldehyde for 30 min. After washing with PBS, cells were incubated at 37 in a humid and light-protected incubator for 1 hr in the reaction mixture of the Leukocyte Acid Phosphatase Assay kit (Cat. 387, Sigma), as directed by the manufacturer. Cells were washed three times with distilled water and TRAP-positive multinucleated cells containing five or more nuclei were counted under a light microscope. To measure TRAP activity, cells were lysed in 150λ of 0.2% Triton X-100 in PBS, RT for 15 min and then incubated with 100λ of phosphatase substrate solution kit (Cat. CS0740, Sigma) at 37 for 30 min. After incubation, the enzyme reaction mixture was transferred to another plate and the reaction was stopped with 100λ of 0.5N NaOH. Absorbance was measured at 405 nm in a ELISA plate reader, and activity calculated from standard curve generated using p-nitrophenol standards. TRAP activity was normalized to total protein (determined by the BCA assay (Cat. 23225, PIERCE)) as well as to total number of nuclei counted after TRAP and hematoxylin staining of a second, identical 96-well plate run in conjunction with that used for the TRAP assay.
(§2) Please refer to FIG. 1A and FIG. 1B, bone marrow-derived macrophages were plated in a plate A with M-CSF (FIG. 1A) and a plate B with M-CSF and RANKL (FIG. 1B) and murine RAW264.7 were plated in a plate C (FIG. 1C) and a plate D with RANKL (FIG. 1D) separately. After a period, the growth of the osteoclast in the plate A (plate C) is different from that in the plate B (plate D). According to the abovementioned, M-CSF and RANKL secreted by the osteoblasts will promote the growth of the osteoclast. Therefore, the growth of the osteoclast cannot be seen in the plate A. In the contrast, there are a lot of osteoclasts grown in the plate B.

murine RAW264.7 = test: Osteoclast differentiation of murine RAW264.7 cells (RANKL), TRAP staining and count of multinucleated cells; format: cell-based; settings: for inhibiting osteoclasts grown (observation of plates, FIG. 2B): 10 nM, 15 nM and 20 nM, effect positive proportional to the concentration; for numbers of osteoclasts as a function of concentration (FIG. 4): compared to the contrast containing RANKL only
Experimental: Murine RAW264.7 (murine leukemic monocyte/macrophage), a type of osteoclast progenitor cells. The murine monocyte/macrophage cell line RAW264.7 was cultured with DMEM (Gibco BRL) containing 10% heat-inactivated FBS, penicillin (100 U/ml), and streptomycin (100 μg/ml). All cells were grown in a humidified atmosphere containing 5% CO^2 at 37. To induce osteoclast differentiation, RAW264.7 cells were suspended in α-MEM containing 10% FBS, 2 mM […], 100 U/ml penicillin, and 100 μg/ml streptomycin, seeded at 10^4 cells/dish in a 96-well plate and cultured with 100 ng/ml soluble RANKL for 5 days. The medium was changed on day 3.
as §1, §2

| Compound | effect for inhibiting osteoclast growth [1] | inhibiting osteoclasts grown (observation of plates, FIG. 2A) [1] | numbers of osteoclasts as a function of concentration (FIG. 3) [1] | inhibiting osteoclasts grown (observation of plates, FIG. 2B) (murine RAW264.7) | numbers of osteoclasts as a function of concentration (FIG. 4) (murine RAW264.7) |
| --- | --- | --- | --- | --- | --- |
| O=C(Nc1cccc(C(F)(F)F)c1)c1ccccc1O [Compound 1, 2-hydroxy-N-[3-(trifluoromethyl)phenyl]benzamide] | most significant effect for inhibiting osteoclast growth |  |  |  |  |
| C#Cc1cccc(NC(=O)c2ccccc2O)c1 [Compound 3, N-(3-ethynylphenyl)-2-hydroxybenzamide] | most significant effect for inhibiting osteoclast growth | have the effect for inhibiting osteoclasts grown | can inhibit osteoclasts grown | have the effect for inhibiting osteoclasts grown | can inhibit osteoclasts grown |
| O=C(Nc1ccc(F)c(F)c1)c1ccccc1O [Compound 5, N-(3,4-difluorophenyl)-2-hydroxybenzamide] | most significant effect for inhibiting osteoclast growth | have the effect for inhibiting osteoclasts grown | can inhibit osteoclasts grown | have the effect for inhibiting osteoclasts grown | can inhibit osteoclasts grown |
| O=C(Nc1ccc(Cl)cc1F)c1ccccc1O [Compound 6, N-(4-chloro-2-fluorophenyl)-2-hydroxybenzamide] | most significant effect for inhibiting osteoclast growth | have the effect for inhibiting osteoclasts grown | can inhibit osteoclasts grown | have the effect for inhibiting osteoclasts grown | can inhibit osteoclasts grown |

Source: patent US8772344B2, “Pharmaceutical composition for inhibiting osteoclast growth” (National Defense Medical Center, priority 2011, dated 2014)
